Publication PMC10777851, “SMT-738: a novel small-molecule inhibitor of bacterial lipoprotein transport targeting Enterobacteriaceae” (Antimicrobial Agents and Chemotherapy, 2023)

How the values were obtained:
[1] = system: Renal proximal tubule epithelial cells; assay: Nephrotoxicity assay (cell health markers); format: cell-based; conditions: top concentration of 500 µM (= 196.85 µg/mL)
Procedure: The standard nephrotoxicity assay was performed by Cyprotex, UK. Renal proximal tubule epithelial cells were exposed to a range of concentrations of compound, loaded with relevant dye/antibody for each cell health marker and scanned using a fluorescent cellular imager (ArrayScan, Thermo Scientific Cellomics). Cell health parameters that were analyzed: cell count, nuclear size, DNA structure, mitochondrial mass, mitochondrial membrane potential, phospholipidosis, glutathione content, and cellular ATP.

Protein binding, human = format: in vitro ADME
K. pneumoniae NCTC 13438 = assay: Time-kill experiment, K. pneumoniae; format: cell-based, Klebsiella pneumoniae; conditions: 2× and 4× the MIC
Procedure: An overnight culture of the test strain was diluted to a viable cell density of ~10^6 CFU/mL and dispensed into 96-well plates containing dilutions of SMT-738 to yield the specified multiple of the MIC. Plates were sealed with a breathable seal and incubated under shaking conditions in a humid incubator at 37°C. At specific timepoints (t = 0, 1, 2, 4, 6, 8, and 24 h), samples were taken and plated onto MH agar plates, and colonies enumerated after overnight growth at 37°C. Viable cell numbers as log10 (CFU/mL) were then plotted against time. Where no colonies were detected, the limit of detection was 100 CFU/mL. Compound activity was scored as bactericidal if the viable cell count decreased by at least 3 log10 from the initial count.

Protein binding, rat = format: in vitro ADME
[2] = system: members of the Enterobacterales order; assay: MIC, panel of 100 bacterial species: Enterobacterales; format: cell-based; conditions: apart from the named exceptions
Procedure: (§1) MIC tests were performed by broth microdilution in-line with CLSI susceptibility testing standards ([20], [21]) either in-house or at IHMA (Europe and USA) or JMI Laboratories using cation-adjusted Mueller Hinton Broth.

[3] = system: human lymphoblastoid TK6 cells; assay: GreenScreen genotoxicity assay; format: cell-based; conditions: top concentration of 500 µM (= 196.85 µg/mL)
Procedure: The standard GreenScreen genotoxcity assay was performed by Cyprotex, UK. The assay uses two strains of human lymphoblastoid TK6 cells, the test strain (GenM-[…]), and the non-fluorescent control strain (GenM-C01). Incorporated in the test strain is a patented green fluorescent protein (GFP) reporter system that exploits the proper regulation of the GADD45a gene, which mediates the adaptive response to genotoxic stress.

[4] = system: anaerobic gut commensals such as Actinomyces sp., Bacteroides sp., Clostridioides sp., Bifidobacterium sp., Peptostreptococcus sp., and Veillonella sp.; assay: MIC, panel of 100 bacterial species: anaerobic gut commensals; format: cell-based
Procedure: as §1

## Cc1cnccc1-c1[nH]c(N)nc1-c1ccc2c(c1)N(C(=O)C(C)(C)N)CCO2 [SMT-738]
[1]
  nephrotoxicity: No toxicity was observed
Protein binding, human
  protein binding: 62.7%
K. pneumoniae NCTC 13438
  bacterial burden following 24-h exposure: below the limit of detection
  timepoint at which bactericidal activity was observed: 4 h
Protein binding, rat
  protein binding: 64.4%
[2]
  MIC: 0.12 to 2 µg/mL
[3]
  genotoxicity: No toxicity was observed
[4]
  MIC: > 128 µg/mL
